Each structure is given as a SMILES string. Read-outs that look alike come from different tables or passages of the source.

A short description of one data set: in vivo. The conditions noted are these: in vivo. An excerpt: (§1) A - La DL 50 a été déterminée chez la souris et le rat par les voies orale et I.V., selon MILLER et TAINTER (Proc. Soc. Exp. Biol. Medecine, 1944, 57, 261.
Another data set relates to oedème à la carragénine. Put plainly: Anti-inflammatory activity, carrageenan oedema test (Winter et al.). The conditions noted are these: Administration P.O, dose that inhibits the oedema by 30 %; for ED30: Rattus norvegicus, po, read-out: Oedème à la carra-génine DE.30. In kind it is in vivo. The text has this:
C - L'activité anti-inflammatoire a été démontrée par le test de l'oedème à la carragénine, selon WINTER et Col. (Proc. Exp. Biol. Med., 1962, 111, 544. On recherche .la protection que confère le traitement par le pro- duit administré P.O. au rat, vis à vis d'un oedème déclenché par injection sous la voûte plantaire, d'une suspension de carragénine. La dose efficace 30 est celle qui inhibe l'oedème de 30 %.

Another data set deals with érythème aux U.V. Put plainly: Protection against early inflammation, UV erythema method (Winder et al.). In kind it is in vivo. Particulars: cobaye albinos, Administration P.O, dose that moderates erythema intensity by 50 %; for ED50: Cavia porcellus, po, read-out: Erythème aux U.V. DE.50. The text has this:
D - L'activité protectrice vis-à-vis de l'inflammation précoce a été mise en évidence sur le cobaye albinos selon la méthode de l'érythème aux U.V. (WINDER et Col., Arch. Int. Pharmacodyn. 1958, 116, 261). La dose efficace 50 est la dose qui.donnée P.O., modère de 50 % l'intensité de l'érythème induit par exposition à un rayonnement U.V. de la surface dorsale épilée des cobayes.

The subject of data set [1] is contractions douloureuses. The experiment in a line: Analgesic activity, acetic acid writhing test (Koster et al.). The class given is in vivo. The conditions noted are these: souris, Administration P.O, dose that reduces the number of painful contractions by 50 %. An excerpt: B - L'activité analgésique a été déterminée chez 1a souris par la méthode de KOSTER et Col. (Fed. Proc. 1959, 18, 412). On détermine la dose efficace 50, dose qui administrée P.O. diminue de 50 % le nombre des contractions douloureuses déclenchées par l'injection in- trapéritonéale d'une solution diluée d'acide acétique.

Another data set deals with souris. The experiment in a line: in vivo. The conditions noted are these: P.O.
Source text: as §1

The subject of a further data set is rat. The experiment in a line: in vivo.
Source text: as §1

The next data set can be described thus: Solubility in water. The class given is physicochemical.

For the compound `CC(C(=O)O)c1ccc(-n2cccc2)c(N)c1` (racemic) [Composé B, acide (±) amino-3 (pyrrolyl-1') -4α- méthyl phényl acétique], the LD50 was 3000 mg/kg in “in vivo” (mouse, po, souris, P.O., read-out: DL. 50 souris P.O.) and 392 ± 50 mg/kg in the data set “in vivo” (rat, po, P.O., read-out: DL. 50 rat P.O.). Besides, the ED30 in the data set with oedème à la carragénine came to 12 mg/kg. In addition, in the data set with érythème aux U.V., the ED50 stood at 4.7 mg/kg. Besides, in data set [1], the “Acide acétique DE.50” value was 19 mg/kg.

In the case of `CC(C(=O)O)c1ccc(-n2cccc2)c(N)c1` (racemic) [Composé C, sel de (±) lysine de l'acide (±) amino-3 (pyrrolyl-l')-4 α- méthyl phénylacétique], the LD50 in the data set “in vivo” (mouse, iv, souris, I.V., read-out: DL. 50 souris I.V.) is over 1600 mg/kg. The “DL. 50 souris P.O.” value with souris is on record as over 3200 mg/kg. Moreover, in the data set with rat, the “DL. 50 rat P.O.” value stood at 697 ± 103 mg/kg. Moreover, in the data set with oedème à la carragénine (rat), the “Oedème à la carra-génine DE.30” value came out at 15 mg/kg. Besides, in the data set with érythème aux U.V., the “Erythème aux U.V. DE.50” value is listed as 4,8 mg/kg. For the same compound, the “Acide acétique DE.50” value in data set [1] was 42 mg/kg. For the same compound, the “solubilité dans l'eau” value in “Solubility in water” is reported as “parfaite solubilité dans l'eau”.

For the compound `CCCCC1C(=O)N(c2ccccc2)N(c2ccccc2)C1=O` [Phénylbuta-zone, butyl-4 diphényl-1,2 pyrazolidine dione-3,5], the ED30 in the data set on oedème à la carragénine worked out at 35 mg/kg. Besides, the ED50 with érythème aux U.V. amounted to 3.7 mg/kg; in data set [1] (Mus musculus, po, read-out: Acide acétique DE.50) it was 93 mg/kg.

Source of the values: patent EP0016703A1, “Lysine salt of (+/-) 3-amino-4-(1-pyrrolyl)-alpha-methylphenyl-acetic acid, process for its preparation and pharmaceutical composition containing it” (LIPHA, LYONNAISE INDUSTRIELLE PHARMACEUTIQUE, priority 1979, dated 1980).
